Consider 22 molecules from patent publication US9029563B2, “Substituted 1-benzylindolin-2-one analogs as positive allosteric modulators of muscarinic acetylcholine M1 receptors” (Vanderbilt University, priority 2012, dated 2015).

This experiment deals with T1, mAChR M1 (UniProt P08482).
T1 sequence (P08482 1-460): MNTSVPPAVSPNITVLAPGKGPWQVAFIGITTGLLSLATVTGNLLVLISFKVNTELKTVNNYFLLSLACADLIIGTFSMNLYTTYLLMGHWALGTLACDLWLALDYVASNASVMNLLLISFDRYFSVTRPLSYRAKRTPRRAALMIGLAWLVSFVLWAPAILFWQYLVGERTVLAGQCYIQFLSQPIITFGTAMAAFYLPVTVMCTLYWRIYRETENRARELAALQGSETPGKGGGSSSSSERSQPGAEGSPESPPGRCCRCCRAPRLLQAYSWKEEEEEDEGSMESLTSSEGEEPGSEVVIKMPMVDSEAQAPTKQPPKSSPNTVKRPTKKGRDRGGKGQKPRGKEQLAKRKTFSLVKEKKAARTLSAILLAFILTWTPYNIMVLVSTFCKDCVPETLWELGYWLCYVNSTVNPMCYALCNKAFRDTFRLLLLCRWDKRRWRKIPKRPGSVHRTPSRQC
As to the kind of experiment: mAChR M1 cell-based functional assay (calcium mobilization, PAM mode). Particulars: for Emax: Percent of AChmax activity in presence of 30 μM test compound; for EC50: potentiation of EC20 acetylcholine response, calcium flux in CHO-K1 cells expressing mAChR M1, >10 μM is estimated for low potency compounds without plateau. From the text: Chinese hamster ovary (CHO-K1) cells stably expressing rat (r)M1 were purchased from the American Type Culture Collection and cultured according to their indicated protocol. CHO cells stably expressing human (h)M2, hM3, and hM5 were described previously (Levey et al., 1991); hM1 and hM4 cDNAs were purchased from Missouri S&T cDNA Resource; rM4 cDNA was provided by T. I. Bonner (National Institutes of Health, Bethesda, Md.). rM2 and rM3 were cloned from a rat brain cDNA library and sequence verified. hM1, rM2, rM3, hM4, and rM4 cDNAs were used to stably transfect CHO-K1 cells purchased from the American Type Culture Collection using Lipofectamine-2000. To make stable rM2, hM2, hM4, and rM4 cell lines for use in calcium mobilization assays, these cells also were stably transfected with a chimeric G-protein (Gqi5) (provided by B.R. Conklin, University of California, San Francisco) using Lipofectamine 2000. rM1, hM1, rM3, hM3, rM5, and hM5 cells were grown in Ham's F-12 medium containing 10% heat-inactivated fetal bovine serum (FBS), 20 mM HEPES, and 50 μg/mL G418 sulfate. rM2-Gqi5, hM2-Gqi5, and hM4-Gqi5 cells were grown in the same medium also containing 500 μg/mL Hygromycin B. Stable rM4-Gqi5 cells were grown in DMEM containing 10% heat-inactivated FBS, 20 mM HEPES, 400 μg/mL G418 sulfate, and 500 μg/mL Hygromycin B.
For high throughput measurement of agonist-evoked increases in intracellular calcium, CHO-K1 cells stably expressing muscarinic receptors were plated in growth medium lacking G418 and hygromycin at 15,000 cells/20 μL/well in Greiner 384-well black-walled, tissue culture (TC)-treated, clear-bottom plates (VWR). Cells were incubated overnight at 37° C. and 5% CO2. The next day, cells were washed using an ELX 405 (BioTek) with four washes (80 μL) of assay buffer then aspirated to 20 μL. Next, 20 μL of 16 μM Fluo-4/acetoxymethyl ester (Invitrogen, Carlsbad, Calif.) prepared as a 2.3 mM stock in DMSO and mixed in a 1:1 ratio with 10% (w/v) Pluronic F-127 and diluted in assay buffer was added to the wells and the cell plates were incubated for 50 min at 37° C. and 5% CO2. Dye was removed by washing with the ELX 405 (four 80 μL washes of assay buffer) then aspirated to 20 μL. Compound master plates were formatted in an 11 point CRC format (1:3 dilutions) in 100% DMSO with a starting concentration of 10 mM using the BRAVO liquid handler (Agilent). Test compound CRCs were then transferred to daughter plates (240 nL) using the Echo acoustic plate reformatter (Labcyte, Sunnyvale, Calif.) and then diluted into assay buffer (40 μL) to a 2× stock using a Thermo Fisher Combi (Thermo Fisher Scientific, Waltham, Mass.).
Calcium flux was measured using the Functional Drug Screening System (FDSS) 6000 (Hamamatsu Corporation, Tokyo, Japan) as an increase in the fluorescent static ratio. Compounds were applied to cells (20 μL, 2×) using the automated system of the FDSS 6000 at 4 s into the 300 s protocol and the data were collected at 1 Hz. At 144 s into the 300 s protocol, 10 μL of an EC20 concentration of the muscarinic receptor agonist acetylcholine was added (5×), followed by the addition of 12 μL an EC80 concentration of acetylcholine at the 230 s time point (5×). Agonist activity was analyzed as a concentration-dependent increase in calcium mobilization upon compound addition. Positive allosteric modulator activity was analyzed as a concentration-dependent increase in the EC20 acetylcholine response. Antagonist activity was analyzed as a concentration-dependent decrease in the EC80 acetylcholine response. Concentration-response curves were generated using a four-parameter logistical equation in XLFit curve fitting software (IDBS, Bridgewater, N.J.) for Excel (Microsoft, Redmond, Wash.) or Prism (GraphPad Software, Inc., San Diego, Calif.).
The calcium mobilization assay was also used to determine “efficacy”. […]

In general, Emax refers to the greatest response seen or fitted, relative to the assay's reference. The EC50 is the concentration at which the effect is half-maximal. On to `CN(C)C1(C)C(=O)N(Cc2ccc(-c3cnn(C)c3)cc2)c2ccccc21` (racemic) [Compound B7, 3-(dimethylamino)-3-methyl-1-(4-(1-methyl-1H-pyrazol-4-yl)benzyl)indolin-2-one], for which the maximal response (Emax) stood at 43% and the 50% effective concentration (EC50) was 5.5 µM.

Take `Cn1cc(-c2ccc(CN3C(=O)C(C)(N)c4ccccc43)cc2)cn1` (racemic) [Compound B15, 3-amino-3-methyl-1-(4-(1-methyl-1H-pyrazol-4-yl)benzyl)indolin-2-one]: the Emax was found to be 28% and the 50% effective concentration (EC50) was more than 10 µM.

Take `Cn1cc(-c2ccc(CN3C(=O)C(O)(C(F)(F)F)c4ccccc43)c(F)c2)cn1` (single isomer, unassigned) [Compound B2, 1-(2-fluoro-4-(1-methyl-1H-pyrazol-4-yl)benzyl)-3-hydroxy-3-(trifluoromethyl)indolin-2-one]: the maximum response (Emax) is given as 68% and the half-maximal effective concentration (EC50) was 3.4 µM. In the case of `Cn1cc(-c2ccc(CN3C(=O)C(O)(C(F)(F)F)c4ccccc43)c(F)c2)cn1` (single isomer, unassigned) [Compound B18, 1-(2-fluoro-4-(1-methyl-1H-pyrazol-4-yl)benzyl)-3-hydroxy-3-(trifluoromethyl)indolin-2-one], the EC50 was more than 30 µM. Turning to `Cn1cc(-c2ccc(CN3C(=O)Cc4ccccc43)c(F)c2)cn1` [Compound B1], the Emax stood at 75% and the EC50 was 2.6 µM.

On to `Cn1cc(-c2ccc(CN3C(=O)C(O)(C(F)(F)F)c4cc(F)ccc43)c(F)c2)cn1` (stereo not shown) [Compound B3], for which the maximal effect (Emax) was determined as 35% and the concentration giving a half-maximal response (EC50) was 3.9 µM. The like results for `Cn1cc(-c2ccc(CN3C(=O)C(O)(CF)c4ccccc43)c(F)c2)cn1` (stereo not shown) [Compound B4, 1-(2-fluoro-4-(1-methyl-1H-pyrazol-4-yl)benzyl)-3-(fluoromethyl)-3-hydroxyindolin-2-one] were, in that order, 52% and 4.6 µM.

As to `Cc1n[nH]cc1-c1ccc(CN2C(=O)C(O)(C(F)(F)F)c3ccccc32)c(F)c1` (stereo not shown) [Compound B5], the maximal response (Emax) was found to be 37% and the EC50 was 4.9 µM. The like results for `Cn1cc(-c2ccc(CN3C(=O)C(O)(C(F)(F)F)c4ccccc43)c(F)c2)cn1` (stereo not shown) [Compound B6, 1-(2-fluoro-4-(1-methyl-1H-pyrazol-4-yl)benzyl)-3-hydroxy-3-(trifluoromethyl)indolin-2-one] were, in that order, 60% and 5 µM. The like results for `Cn1cc(-c2ccc(CN3C(=O)C(C)(O)c4ccccc43)c(F)c2)cn1` (stereo not shown) [Compound B8, 1-(2-fluoro-4-(1-methyl-1H-pyrazol-4-yl)benzyl)-3-hydroxy-3-methylindolin-2-one] were, in that order, 52% and more than 10 µM.

For `CC1C(=O)N(Cc2ccc(-c3cnn(C)c3)cc2F)c2ccccc21` (stereo not shown) [Compound B9], the Emax came out at 55% and the EC50 was more than 10 µM. On the same counts, the results for `Cn1cc(-c2ccc(CN3C(=O)C(O)(C(F)(F)F)c4ccccc43)c(Cl)c2)cn1` (stereo not shown) [Compound B10, 1-(2-chloro-4-(1-methyl-1H-pyrazol-4-yl)benzyl)-3-hydroxy-3-(trifluoromethyl)indolin-2-one] are 41% and more than 10 µM. Consider `Cn1cc(-c2ccc(CN3C(=O)C(O)(C(F)(F)F)c4ccccc43)cc2F)cn1` (stereo not shown) [Compound B11], for which the Emax is 45% and the EC50 was more than 10 µM.

`Cn1cc(-c2ccc(CN3C(=O)C(O)(C(F)(F)F)c4ccccc43)cc2)cn1` (stereo not shown) [Compound B12]: the Emax stood at 63% and the EC50 is more than 10 µM.

Turning to `CC(C)n1cc(-c2ccc(CN3C(=O)C(O)(C(F)(F)F)c4ccccc43)c(F)c2)cn1` (stereo not shown) [Compound B13], the Emax was 38% and the half-maximal effective concentration (EC50) is more than 10 µM. The like results for `CCn1cc(-c2ccc(CN3C(=O)C(O)(C(F)(F)F)c4ccccc43)c(F)c2)cn1` (stereo not shown) [Compound B14] were, in that order, 45% and more than 10 µM.

`CCCn1cc(-c2ccc(CN3C(=O)C(O)(C(F)(F)F)c4ccccc43)c(F)c2)cn1` (stereo not shown) [Compound B16]: the maximal effect (Emax) is 31% and the EC50 is more than 10 µM. For the molecule `Cn1cc(-c2ccc(CN3C(=O)C(O)(C(F)(F)F)c4ccccc43)cn2)cn1` (stereo not shown) [Compound B17], the maximum response (Emax) worked out at 54% and the EC50 was more than 10 µM.

With `Cn1cc(-c2ccc(CN3C(=O)C(O)(C(F)(F)F)c4ccccc43)c(F)c2)cn1` (stereo not shown) [Compound B19], the Emax is reported as 54% and the EC50 is 3.64 µM.

With `Cn1cc(-c2ccc(CN3C(=O)C(N)c4ccccc43)c(F)c2)cn1` (stereo not shown) [Compound B20], the maximal response (Emax) came out at 46% and the 50% effective concentration (EC50) is 1.36 µM. In the case of `Cn1cc(-c2ccc(CN3C(=O)C(O)(C(F)(F)F)c4ccccc43)cc2F)cn1` (stereo not shown) [Compound B21], the Emax amounted to 38% and the EC50 was more than 10 µM. Turning to `CC(c1ccc(-c2cnn(C)c2)cc1F)N1C(=O)Cc2ccccc21` (stereo not shown) [Compound B24], the maximum response (Emax) is reported as 44% and the EC50 is more than 10 µM.
